The values below come from patent US12540143B2, “Methods and compositions for targeted protein degradation” (Ranok Therapeutics (Hangzhou) Co. Ltd., priority 2019, dated 2026).

Where a name gives a salt, the structure may show the parent alone.

The assay relates to MV4-11 cells. Description: MV4-11 Cytotoxicity Assay. Format: cell-based, human. The settings on record: Homo sapiens, MV4-11; 72 hr, CCK-8; read-out: MV4-11 cytotoxicity.
On to `Cc1sc2c(c1C)C(c1ccc(Cl)cc1)=N[C@@H](CC(=O)N1CCC(CCN3CCC(Cc4ccc(-n5c(O)nnc5-c5cc(C(C)C)c(O)cc5O)cc4)CC3)CC1)c1nnc(C)n1-2` [Compound 80, (S)-2-(4-(4-chlorophenyl)-2,3,9-trimethyl-6H-thieno[3,2-f][1,2,4]triazolo[4,3-a][1,4]diazepin-6-yl)-1-(4-(2-(4-(4-(3-(2,4-dihydroxy-5-isopropylphenyl)-5-hydroxy-4H-1,2,4-triazol-4-yl)benzyl)piperidin-1-yl)ethyl)piperidin-1-yl)ethan-1-one, trifluoroacetic acid], for which the IC50 was below 100 nM.
The result for `CCc1cc(-c2nnc(C(=O)NCC(F)(F)F)n2-c2ccc(CC3CCN(CC4CCN(C(=O)C[C@@H]5N=C(c6ccc(Cl)cc6)c6c(sc(C)c6C)-n6c(C)nnc65)CC4)CC3)cc2)c(O)cc1O` [Compound 86, (S)-4-(4-((1-((1-(2-(4-(4-chlorophenyl)-2,3,9-trimethyl-6H-thieno[3,2-f][1,2,4]triazolo[4,3-a][1,4]diazepin-6-yl)acetyl)piperidin-4-yl)methyl)piperidin-4-yl)methyl)phenyl)-5-(5-ethyl-2,4-dihydroxyphenyl)-N-(2,2,2-trifluoroethyl)-4H-1,2,4-triazole-3-carboxamide, trifluoroacetic acid] reads below 100 nM; that for `Cc1sc2c(c1C)C(c1ccc(Cl)cc1)=N[C@@H](CC(=O)N(C)CCOc1ccc(CN(C)Cc3ccc(-n4c(C(=O)NCC(F)(F)F)nnc4-c4cc(C(C)C)c(O)cc4O)cc3)cc1)c1nnc(C)n1-2` [Compound 101, (S)-4-(4-(((4-(2-(2-(4-(4-chlorophenyl)-2,3,9-trimethyl-6H-thieno[3,2-f][1,2,4]triazolo[4,3-a][1,4]diazepin-6-yl)-N-methylacetamido)ethoxy)benzyl)(methyl)amino)methyl)phenyl)-5-(2,4-dihydroxy-5-isopropylphenyl)-N-(2,2,2-trifluoroethyl)-4H-1,2,4-triazole-3-carboxamide, formic acid], below 100 nM.
On to `Cc1sc2c(c1C)C(c1ccc(Cl)cc1)=N[C@@H](CC(=O)NCc1ccc(-n3c(S)nnc3-c3cc(C(C)C)c(O)cc3O)cc1)c1nnc(C)n1-2` [Compound 28, (S)-2-(4-(4-chlorophenyl)-2,3,9-trimethyl-6H-thieno[3,2-f][1,2,4]triazolo[4,3-a][1,4]diazepin-6-yl)-N-(4-(3-(2,4-dihydroxy-5-isopropylphenyl)-5-mercapto-4H-1,2,4-triazol-4-yl)benzyl)acetamide], for which the IC50 was in the range of 100 to 1000 nM.
The result for `CCc1cc(-c2nnc(O)n2-c2ccc(CN3CCC(C(=O)N4CCC(CNCC[C@@H]5N=C(c6ccc(Cl)cc6)c6c(sc(C)c6C)-n6c(C)nnc65)C4)CC3)cc2)c(O)cc1O` (stereo partly drawn) [Compound 67, (3-(((2-((6S)-4-(4-chlorophenyl)-2,3,9-trimethyl-6H-thieno[3,2-f][1,2,4]triazolo[4,3-a][1,4]diazepin-6-yl)ethyl)amino)methyl)pyrrolidin-1-yl)(1-(4-(3-(5-ethyl-2,4-dihydroxyphenyl)-5-hydroxy-4H-1,2,4-triazol-4-yl)benzyl)piperidin-4-yl) methanone, trifluoroacetic acid] reads 100 to 1000 nM; that for `CCN(Cc1ccc(OCCCNC(=O)C[C@@H]2N=C(c3ccc(Cl)cc3)c3c(sc(C)c3C)-n3c(C)nnc32)cc1)Cc1ccc(-n2c(C(=O)NCC(F)(F)F)nnc2-c2cc(C(C)C)c(O)cc2O)cc1` [Compound 102, (S)-4-(4-(((4-(3-(2-(4-(4-chlorophenyl)-2,3,9-trimethyl-6H-thieno[3,2-f][1,2,4]triazolo[4,3-a][1,4]diazepin-6-yl)acetamido)propoxy)benzyl)(ethyl)amino)methyl)phenyl)-5-(2,4-dihydroxy-5-isopropylphenyl)-N-(2,2,2-trifluoroethyl)-4H-1,2,4-triazole-3-carboxamide, trifluoroacetic acid], below 100 nM; that for `Cc1sc2c(c1C)C(c1ccc(Cl)cc1)=N[C@@H](CC(=O)NCC(=O)NCCOc1ccc(-n3c(O)nnc3-c3cc(C(C)C)c(O)cc3O)cc1)c1nnc(C)n1-2` [Compound 54, (S)-2-(4-(4-chlorophenyl)-2,3,9-trimethyl-6H-thieno[3,2-f][1,2,4]triazolo[4,3-a][1,4]diazepin-6-yl)-N-(2-((2-(4-(3-(2,4-dihydroxy-5-isopropylphenyl)-5-hydroxy-4H-1,2,4-triazol-4-yl)phenoxy)ethyl)amino)-2-oxoethyl)acetamide], 100 to 1000 nM.
On to `Cc1cc(-c2nnc(C(=O)NCCN3CCCCC3)n2-c2ccc(CN3CCN(CC4CCN(C(=O)C[C@@H]5N=C(c6ccc(Cl)cc6)c6c(sc(C)c6C)-n6c(C)nnc65)CC4)CC3)cc2)c(O)cc1O` [Compound 124, (S)-4-(4-((4-((1-(2-(4-(4-chlorophenyl)-2,3,9-trimethyl-6H-thieno[3,2-f][1,2,4]triazolo[4,3-a][1,4]diazepin-6-yl)acetyl)piperidin-4-yl)methyl)piperazin-1-yl)methyl)phenyl)-5-(2,4-dihydroxy-5-methylphenyl)-N-(2-(piperidin-1-yl)ethyl)-4H-1,2,4-triazole-3-carboxamide, trifluoroacetic acid], for which the IC50 was below 100 nM.
The value for `Cc1sc2c(c1C)C(c1ccc(Cl)cc1)=N[C@@H](CC(=O)NCC1CN(C(=O)C3CCN(Cc4ccc(-n5c(O)nnc5-c5cc(C(C)C)c(O)cc5O)cc4)CC3)C1)c1nnc(C)n1-2` [Compound 59, 2-((6S)-4-(4-chlorophenyl)-2,3,9-trimethyl-6H-thieno[3,2-f][1,2,4]triazolo[4,3-a][1,4]diazepin-6-yl)-N-((1-(1-(4-(3-(2,4-dihydroxy-5-isopropylphenyl)-5-hydroxy-4H-1,2,4-triazol-4-yl)benzyl)piperidine-4-carbonyl)azetidin-3-yl)methyl)acetamide, trifluoroacetic acid] was below 100 nM; that for `Cc1sc2c(c1C)C(c1ccc(Cl)cc1)=N[C@@H](CC(=O)N1CCC(CN3CCN(Cc4ccc(-n5c(C(N)=O)nnc5-c5ccc(O)cc5O)cc4)CC3)CC1)c1nnc(C)n1-2` [Compound 112, (S)-4-(4-((4-((1-(2-(4-(4-chlorophenyl)-2,3,9-trimethyl-6H-thieno[3,2-f][1,2,4]triazolo[4,3-a][1,4]diazepin-6-yl)acetyl)piperidin-4-yl)methyl)piperazin-1-yl)methyl)phenyl)-5-(2,4-dihydroxyphenyl)-4H-1,2,4-triazole-3-carboxamide, trifluoroacetic acid] was below 100 nM; that for `Cc1sc2c(c1C)C(c1ccc(Cl)cc1)=N[C@@H](CC(=O)NCc1ccc(CN3CCC(Cc4ccc(-n5c(O)nnc5-c5cc(C(C)C)c(O)cc5O)cc4)CC3)cc1)c1nnc(C)n1-2` [Compound 89, (S)-2-(4-(4-chlorophenyl)-2,3,9-trimethyl-6H-thieno[3,2-f][1,2,4]triazolo[4,3-a][1,4]diazepin-6-yl)-N-(4-((4-(4-(3-(2,4-dihydroxy-5-isopropylphenyl)-5-hydroxy-4H-1,2,4-triazol-4-yl)benzyl)piperidin-1-yl)methyl)benzyl)acetamide, trifluoroacetic acid] was below 100 nM.
The result for `CCNC(=O)c1nnc(-c2cc(C(C)C)c(O)cc2O)n1-c1ccc(CC2CCN(CC3CCN(C(=O)C[C@@H]4N=C(c5ccc(Cl)cc5)c5c(sc(C)c5C)-n5c(C)nnc54)CC3)CC2)cc1` [Compound 90, (S)-4-(4-((1-((1-(2-(4-(4-chlorophenyl)-2,3,9-trimethyl-6H-thieno[3,2-f][1,2,4]triazolo[4,3-a][1,4]diazepin-6-yl)acetyl)piperidin-4-yl)methyl)piperidin-4-yl)methyl)phenyl)-5-(2,4-dihydroxy-5-isopropylphenyl)-N-ethyl-4H-1,2,4-triazole-3-carboxamide] reads below 100 nM.
The value for `Cc1sc2c(c1C)C(c1ccc(Cl)cc1)=N[C@@H](CC(=O)N(C)CCOc1ccc(CN(C)Cc3ccc(-n4c(O)nnc4-c4cc(C(C)C)c(O)cc4O)cc3)cc1)c1nnc(C)n1-2` [Compound 99, (S)-2-(4-(4-chlorophenyl)-2,3,9-trimethyl-6H-thieno[3,2-f][1,2,4]triazolo[4,3-a][1,4]diazepin-6-yl)-N-(2-(4-(((4-(3-(2,4-dihydroxy-5-isopropylphenyl)-5-hydroxy-4H-1,2,4-triazol-4-yl)benzyl)(methyl)amino)methyl)phenoxy)ethyl)-N-methylacetamide, formic acid] was below 100 nM; that for `CCc1cc(-c2nnc(O)n2-c2ccc(CN3CCN(CC4CCN(C(=O)C[C@@H]5N=C(c6ccc(Cl)cc6)c6c(sc(C)c6C)-n6c(C)nnc65)CC4)CC3)cc2)c(O)cc1O` [Compound 10, (S)-2-(4-(4-chlorophenyl)-2,3,9-trimethyl-6H-thieno[3,2-f][1,2,4]triazolo[4,3-a][1,4]diazepin-6-yl)-1-(4-((4-(4-(3-(5-ethyl-2,4-dihydroxyphenyl)-5-hydroxy-4H-1,2,4-triazol-4-yl)benzyl)piperazin-1-yl)methyl)piperidin-1-yl)ethan-1-one hydrochloride] was below 100 nM.
Regarding `Cc1sc2c(c1C)C(c1ccc(Cl)cc1)=N[C@@H](CC(=O)N(C)[C@H](C)c1ccc(CN3CCC(Cc4ccc(-n5c(O)nnc5-c5cc(C(C)C)c(O)cc5O)cc4)CC3)cc1)c1nnc(C)n1-2` [Compound 93, 2-((S)-4-(4-chlorophenyl)-2,3,9-trimethyl-6H-thieno[3,2-f][1,2,4]triazolo[4,3-a][1,4]diazepin-6-yl)-N—((R)-1-(4-((4-(4-(3-(2,4-dihydroxy-5-isopropylphenyl)-5-hydroxy-4H-1,2,4-triazol-4-yl)benzyl)piperidin-1-yl)methyl)phenyl)ethyl)-N-methylacetamide, trifluoroacetic acid], the IC50 is below 100 nM.
The value for `Cc1sc2c(c1C)C(c1ccc(Cl)cc1)=N[C@@H](CC(=O)N1CCC(Cc3ccc(-n4c(O)nnc4-c4cc(C(C)C)c(O)cc4O)cc3)CC1)c1nnc(C)n1-2` [Compound 3, 2-((6S)-4-(4-chlorophenyl)-2,3,9-trimethyl-6H-thieno[3,2-f][1,2,4]triazolo[4,3-a][1,4]diazepin-6-yl)-1-(4-(4-(3-(2,4-dihydroxy-5-isopropylphenyl)-5-hydroxy-4H-1,2,4-triazol-4-yl)benzyl)piperidin-1-yl)ethanone, trifluoroacetic acid] was below 100 nM.
